In patent US11286268B1, “EIF4E-inhibiting compounds and methods” (EFFECTOR THERAPEUTICS, INC., priority 2019, dated 2022):
Where two headings read alike, the source gives them in different places.

Target: recombinant eIF4E (Homo sapiens (Human), UniProt P06730)
Experiment: Fluorescence polarization competition assay for eIF4E binding potency
Method in brief: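 IC50 derived from fluorescence polarization over an 8-point, 3-fold compound series after 30 min room-temperature equilibration in the dark. Mix: eIF4E 75 nM pre-bound 5 min to 20 nM EDA-m^7GDP-ATTO-550; buffer 20 mM Tris pH 7.5, 100 mM NaCl, 1 mM DTT, 0.02% Tween-20; DMSO 1%.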

[1] = fluorescence polarization competition, 75 nM recombinant eIF4E, 20 nM EDA-m7GDP-ATTO-550, IC50 class, read-out: elF4E FP
[2] = inhibition of eIF4E/EDA-m7GDP-ATTO-550 binding by 50%, Table 4B calculated values, read-out: IC50

Sequence of recombinant eIF4E (P06730 whole entry): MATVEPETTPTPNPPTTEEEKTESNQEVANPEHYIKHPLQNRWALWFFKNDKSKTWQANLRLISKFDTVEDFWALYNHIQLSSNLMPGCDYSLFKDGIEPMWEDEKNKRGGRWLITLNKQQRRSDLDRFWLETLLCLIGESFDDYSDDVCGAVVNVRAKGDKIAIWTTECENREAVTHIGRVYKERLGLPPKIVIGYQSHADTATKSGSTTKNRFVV

Compound	IC50 [1]	IC50 [2]
Cc1ncc(C#N)c2c(=O)n(CCOc3ccc(Cl)cc3-c3ccc(C)c4c(C(=O)O)csc34)c(C)nc12 [compound 722]	< 50 nM	38 nM
Cc1cc(-c2cc(Cl)ccc2OCCn2c(C)nc3cc(CF)c(C)c(C#N)c3c2=O)c2scc(C(=O)O)c2n1 [compound 724]	< 50 nM	37.7 nM
Cc1ccc(-c2cc(Cl)ccc2OCCn2c(C)nc3c(N(C)C)ncc(C#N)c3c2=O)c2scc(C(=O)O)c12 [compound 725]	< 50 nM	38.2 nM
COc1ncc(C#N)c2c(=O)n(CCOc3ccc(Cl)cc3-c3ccc(C)c4c(C(=O)O)csc34)c(C)nc12 [compound 726]	50 to 1000 nM	53 nM
Cc1cc(-c2cc(Cl)ccc2OCCn2c(C)nc3c(C)nc(C(F)F)c(C#N)c3c2=O)c2scc(C(=O)O)c2n1 [compound 728]	< 50 nM	31 nM
Cc1ccc(-c2cc(Cl)ccc2OCCn2c(C)nc3c(C#N)nc(-c4cccnc4)c(C)c3c2=O)c2scc(C(=O)O)c12 [compound 729]	50 to 1000 nM	92.5 nM
Cc1cc(-c2cc(Cl)ccc2OCCn2c(C)nc3c(C)nc(C(F)(F)F)c(C#N)c3c2=O)c2scc(C(=O)O)c2n1 [compound 730]	50 to 1000 nM	51 nM
Cc1cc(-c2cc(Cl)ccc2OCCn2c(C)nc3c(C)ncc(C#N)c3c2=O)c2scc(C(=O)NS(C)(=O)=O)c2n1 [compound 731]	< 50 nM	5.97 nM
Cc1cc(-c2cc(Cl)ccc2OCCn2c(C)nc3cc(C(F)(F)F)c(CN4CC5CCC(C4)N5C)c(C#N)c3c2=O)c2scc(C(=O)O)c2n1 [compound 740]	< 50 nM	39.2 nM
Cc1cc(-c2cc(Cl)ccc2OCCn2c(C)nc3cc(Cl)c(N4CCN(C)CC4)c(C#N)c3c2=O)c2sc(C)c(C(=O)O)c2n1 [compound 741]	< 50 nM	15.2 nM
Cc1cc(-c2cc(Cl)ccc2OCCn2c(C)nc3c(C)nc(C4CC4)c(C#N)c3c2=O)c2scc(C(=O)O)c2n1 [compound 742]	< 50 nM	32.5 nM
Cc1ccc(-c2cc(Cl)ccc2OCCn2c(C)nc3c(C#N)nc(-c4ccccn4)c(C)c3c2=O)c2scc(C(=O)O)c12 [compound 743]	50 to 1000 nM	188 nM

Second part, the compound after the results:

IC50 [1]	IC50 [2]	Compound
< 50 nM	28.7 nM	Cc1ncc(C#N)c2c(=O)n(CCOc3ccc(Cl)cc3-c3ccc(Cl)c4c(C(=O)O)csc34)c(C)nc12 [compound 723]
< 50 nM	29.4 nM	COCc1ncc(C#N)c2c(=O)n(CCOc3ccc(Cl)cc3-c3ccc(C)c4c(C(=O)O)csc34)c(C)nc12 [compound 727]
50 to 1000 nM	874 nM	Cc1cc(-c2cc(Cl)ccc2OCCn2c(C)nc3c(C)ncc(C#N)c3c2=O)c2scc(C(O)(O)C(F)(F)F)c2n1 [compound 732]
> 1000 nM	1730 nM	Cc1cc(-c2cc(Cl)ccc2OCCn2c(C)nc3c(C)ncc(C#N)c3c2=O)c2scc(C(O)C(F)(F)F)c2n1 (stereo not drawn) [compound 733]
50 to 1000 nM	58 nM	Cc1cc(-c2cc(Cl)ccc2OCCn2c(C)nc3cc(C(F)(F)F)c(-c4cccnc4C)c(C#N)c3c2=O)c2scc(C(=O)O)c2n1 [compound 735]
< 50 nM	17 nM	Cc1cc(-c2cc(Cl)ccc2OCCn2c(C)nc3cc(C(F)(F)F)c(-c4cnccc4C)c(C#N)c3c2=O)c2scc(C(=O)O)c2n1 [compound 736]
< 50 nM	12.3 nM	Cc1cc(-c2cc(Cl)ccc2OCCn2c(C)nc3c(C)nc(-c4ccccc4)c(C#N)c3c2=O)c2scc(C(=O)O)c2n1 [compound 737]
< 50 nM	19.3 nM	Cc1cc(-c2cc(Cl)ccc2OCCn2c(C)nc3cc(C(F)(F)F)c(CN4CCN(C(C)(C)C)CC4)c(C#N)c3c2=O)c2scc(C(=O)O)c2n1 [compound 738]
< 50 nM	30.8 nM	Cc1cc(-c2cc(Cl)ccc2OCCn2c(C)nc3cc(C(F)(F)F)c(CN4CCN(CC(F)F)CC4)c(C#N)c3c2=O)c2scc(C(=O)O)c2n1 [compound 739]
